Measured values: article PMC11130262, “Ebselen analogues delay disease onset and its course in fALS by on-target SOD-1 engagement” (Scientific Reports, 2024)
Read-outs that look alike come from different tables or passages of the source.

Assays:
[1] = test system: Neuro2a cells with SOD1^G93A expression; assay: Proteostasis immunoblotting in cultured Neuro2a cells expressing G93A SOD1; type: cell-based, mouse; details: 10 µM, 24 h; for poly-ubiquitinated proteins: Fig. 6J
Protocol: Neuro2a cells were seeded on 6 well plate (#140685 Corning Costar) at 5.0 × 10^4/well, and transfected with human wild-type or G93A SOD1 expressing plasmid[25] using Lipofectamine 2000 (Thermo Fisher Scientific) according to the manufacturer’s instructions.

G93A SOD1 = target: T1, G93A SOD1 (Homo sapiens, UniProt P00441, G94A); assay: Bimolecular fluorescence complementation (BiFC) assay of SOD1 aggregation, G93A; type: cell-based
T1 construct: expressed in transfected cells; host or cells: human H4 neuroglioma cells (HTB-148, ATCC)
T1 sequence (P00441 whole entry G94A): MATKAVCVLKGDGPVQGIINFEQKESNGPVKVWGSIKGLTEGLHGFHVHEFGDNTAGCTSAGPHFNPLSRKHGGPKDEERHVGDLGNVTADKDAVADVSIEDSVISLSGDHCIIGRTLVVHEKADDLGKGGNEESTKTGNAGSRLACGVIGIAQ
T1 sequence (P00441 2-154 G94A limits assumed): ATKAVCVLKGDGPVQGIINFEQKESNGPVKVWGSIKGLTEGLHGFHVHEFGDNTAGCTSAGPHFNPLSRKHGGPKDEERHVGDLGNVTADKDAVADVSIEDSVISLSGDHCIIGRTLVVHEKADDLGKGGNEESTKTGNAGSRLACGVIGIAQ
Protocol: Human H4 neuroglioma cells cultured in glass-bottom dishes were transfected with Venus fragments as described above using Turbofect transfection reagent. Transfected H4 cells were stained with 5 µM DRAQ5 nuclear stain (ab108410, Abcam) and incubated at 37 °C for 5 min prior to cell imaging. Live cell imaging was performed on cells maintained in a humidified incubator (37 °C, 5% CO2) using a Zeiss LSM 710 microscope. […]

[2] = Oral bioavailability and pharmacokinetic study in mice; type: in vivo, female CD1 mice
Protocol: The analysis is based on free measurable amounts of free drug in the plasma and thus is likely to be an underestimation of active drug compound due to the extensive serum albumin binding seen with drugs in this class.
F = (AUCINF-PO/mean AUCINF-IV)/(DosePO/DoseIV) × 100%, AUClast was alternatively used for F calculation when AUCINF was not available or beyond 120% of AUClast. The compound were formulated in 5%DMAC + 95% (20% HP-beta-CD in saline) at 0.2 mg/mL for IV dosing and CMC (0.5%), benzyl alcohol (0.5%), Tween 80 (0.4%) and NaCl (0.9%) at 3 mg/mL for PO dosing, respectively. PK parameters were estimated by non-compartmental model using WinNonlin 8.2.

D90A SOD1 = target: T2, D90A SOD1 (Homo sapiens, UniProt P00441, D91A); assay: Bimolecular fluorescence complementation (BiFC) assay of SOD1 aggregation, D90A; type: cell-based; details: for reduction of aggregates / aggregation propensity: D90A, 50 µM
T2 construct: expressed in transfected cells; host or cells: human H4 neuroglioma cells (HTB-148, ATCC)
T2 sequence (P00441 whole entry D91A): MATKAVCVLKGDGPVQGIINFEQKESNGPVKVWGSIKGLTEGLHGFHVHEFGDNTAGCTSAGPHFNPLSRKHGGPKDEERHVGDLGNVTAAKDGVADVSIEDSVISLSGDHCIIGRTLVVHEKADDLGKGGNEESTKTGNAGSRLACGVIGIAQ
T2 sequence (P00441 2-154 D91A limits assumed): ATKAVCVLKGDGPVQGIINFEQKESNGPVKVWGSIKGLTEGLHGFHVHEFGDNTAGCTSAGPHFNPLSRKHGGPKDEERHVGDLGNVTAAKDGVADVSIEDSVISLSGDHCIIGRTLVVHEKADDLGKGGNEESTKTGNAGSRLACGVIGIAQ
Protocol: (§2) Human H4 neuroglioma cells cultured in glass-bottom dishes were transfected with Venus fragments as described above using Turbofect transfection reagent. Transfected H4 cells were stained with 5 µM DRAQ5 nuclear stain (ab108410, Abcam) and incubated at 37 °C for 5 min prior to cell imaging. Live cell imaging was performed on cells maintained in a humidified incubator (37 °C, 5% CO2) using a Zeiss LSM 710 microscope. To obtain large field of view for analysis, images were collected using a 4 × 4 tiles with a 20 × Fluar 0.8 NA (Carl Zeiss, Jena, Germany) at 1024 × 1024 pixels. Excitation of Venus fluorescent protein (VFP) was carried out with 514-nm argon laser while DRAQ5 was excited at 633 nm with a HeNe laser. Emitted light was collected through appropriate filters to eliminate any spill-overs. Image acquisition and processing were carried out using ZEN 2.1 software (Carl Zeiss, Jena Germany).
Following the drug treatment (24 h) of transfected cells and nuclear staining with DRAQ5 for 5 min the tiled images were generated as described above. […] Fiji software[52] was used to determine minimum and maximum diameter of cells and inclusions within the cells in pixel units. These cell/inclusion sizes were then used to set parameters in Cell Profiler[53]. The pipeline was adapted from the Speckle Counter example available from CellProfiler (https://cellprofiler.org/) for the batch analysis of the cells with or without inclusions. The low fluorescent cells missed by the cell profiler were adjusted by manual counting.

[3] = test system: spinal cords of SOD1^G93A mice; type: in vivo, mouse
Protocol: Immunoblotting and immunofluorescence analyses were performed as described previously. For the analysis of SOD1 oligomers with aberrant disulfide bonds (SOD1 S–S oligomers), sodium dodecyl sulfate–polyacrylamide gel electrophoresis was performed under non-reducing conditions. […] (Medimabs, Montreal, Quebec, Canada) was used at a 1:250 dilution. Other primary antibodies used for the study were anti-β-actin (1:5,000, #A5441, RRID: AB_476744, Sigma-Aldrich), anti-p62 (1:1,000 for immunoblotting, 1:500 for immunohistochemistry, #PM045, RRID: AB_2169714, Medical and Biological Laboratories (MBL), Nagoya, Japan), anti-polyubiquitin (1:1,000 for immunoblotting, 1:500 for immunohistochemistry, #D058‐3, RRID: AB_592937, MBL), and anti-choline acetyltransferase (ChAT) ((1:100 for immunohistochemistry, #AB144P, RRID:AB_2079751, EMD Millipore Corp., Billerica, MA, USA). Rabbit anti-human SOD1 antibody was raised in our laboratory against a recombinant human SOD1 peptide (aa 24–37) and purified with protein A[66].

[4] = test system: mouse neuronal N2a cells expressing G93A SOD1; set-up: method as in PMID 32862101; details: N2a cells expressing G93A SOD1, shown again in Fig. 1B; cited from earlier work
[5] = test system: SOD1^G93A transgenic mice; assay: Survival and behavioral experiments of SOD1G93A transgenic mice, chronic oral administration; type: in vivo, mouse; details: for disease onset (mean ± SD): female SOD1G93A mice, 0.016% w/w in powder food (estimated dose 24 mg/kg) from 70 days of age, controls 104.4 ± 8.7 (MR6-8-2) and 106.4 ± 9.0 (MR6-26-2)
Protocol: Transgenic mice expressing human SOD1^G93A with C57BL/6 background (B6.Cg‐Tg(SOD1*G93A)1Gur/J) (RRID: IMSR_JAX:004435) were prepared for in vivo experiments using our published protocol with determination of the times for disease onset and end-stage were previously[25],[61]. […] The diet was replenished three times per week, and the mice had free access to their assigned diet and deionized water. The body weight of the mice and clasping signs were measured every week. Disease onset was determined by the time when the mice reached maximum body weight. The clasping signs were scored as 0 (no sign), 1 (one hindlimb partially retracted), 2 (both hindlimb partially retracted), or 3 (hindlimbs were entirely retracted), as described elsewhere[62],[63]. Rotarod tests were performed every two weeks, as previously described[61],[62]. Briefly, the mice were placed on the rotating rods, which accelerated from 0 to 30 rpm for 5 min with 15 min interval between each trial. The longest latencies to fall from the rotating rods out of three trials were scored. All behavioral experiments were conducted under non-blinded conditions. The mice were housed in the specific pathogen-free (SPF) environment (with a 12 h light‐dark cycle at 23 ± 1 °C and 50 ± 5% humidity) and treated in compliance with the requirements of the Animal Care and Use Committee, Nagoya University. The experiments using genetically modified mice were approved by the Animal Care and Use Committee and the recombinant DNA experiment committee of Nagoya University. All methods used for transgenic mice experiments were in accordance with relevant guidelines and regulations and all methods are reported in accordance with ARRIVE guideline.

A4V SOD1 = A4V SOD1 (Homo sapiens, UniProt P00441, A5V)
Sequence of A4V SOD1 (P00441 whole entry A5V): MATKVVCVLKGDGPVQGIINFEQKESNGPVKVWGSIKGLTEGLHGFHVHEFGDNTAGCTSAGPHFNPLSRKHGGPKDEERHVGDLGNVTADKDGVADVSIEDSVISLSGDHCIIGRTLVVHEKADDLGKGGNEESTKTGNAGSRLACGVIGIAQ
Sequence of A4V SOD1 (P00441 2-154 A5V limits assumed): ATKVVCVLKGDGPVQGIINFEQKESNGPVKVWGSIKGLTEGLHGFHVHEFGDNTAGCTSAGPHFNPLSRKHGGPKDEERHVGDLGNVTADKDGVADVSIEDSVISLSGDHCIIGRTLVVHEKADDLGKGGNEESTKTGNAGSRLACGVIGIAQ
Protocol: (§1) Human H4 neuroglioma cells (HTB-148, ATCC) and mouse Neuro2a neuroblastoma cells (CCL-131, ATCC) were cultured in Dulbecco’s modified Eagle’s medium (DMEM) (Gibco) supplemented with 10%v/v Foetal Bovine Serum (FBS) at 37 °C under humidified atmosphere with 5% CO2. Transfection of the Venus-BiFC SOD1 plasmids to H4 cells was carried out using Turbofect™ transfection agent (#R0533, Thermo Fisher Scientific) following protocols from the manufacture. Briefly, 1.5 × 10^5 H4 cells suspended in 1 mL medium were seeded on a well of 4 compartment-glass bottom dish (Cellview™, Greiner Bio-one) and grown at 37 °C for 24 h. 0.25 µg Venus-BiFC plasmids of wild-type or A4V SOD1 homodimer comprised of equimolar concentrations of VN-SOD1 and SOD1-VC were mixed with 1 µL Turbofect in 0.1 mL FBS-free DMEM and incubated at room temperature for 15 min before adding to seeded H4 cells. […] To determine cell viability, 2.5 × 10^4 cells were seeded in 0.2 mL media in a 96-well plate (Corning Costar, #10695951, Thermo Fisher Scientific). Cell viability was measured either using MTS assay (CellTiter 96, #G3580, Promega) on a plate-reader spectrometer (SpectraMax Plus 384, Molecular Devices) or using CellTiter-GloR 2.0 Assay (#G9241, Promega) following the manufacturer’s protocol. […] BMG POLARstar Omega microplate reader was used for luminescence measurement. To avoid the interference of the antioxidant compounds (ebselen and its analogues) with the luciferase activity in the presence of oxygen, the drugs containing media was replaced with a fresh medium prior to the addition of the reagent.

[6] = test system: H4 cells expressing G93A SOD1; assay: ATP bioluminescent (CellTiter-Glo) cell viability assay, H4 cells expressing G93A SOD1; type: cell-based, human; details: for cell survival: 10 and 25 μM, 24 h, individual drugs; for concentration up to which high level of cells viability is seen: dose-response 2.5 to 100 μM
H46R SOD1 = target: T3, H46R SOD1 (Homo sapiens, UniProt P00441, H47R); assay: Bimolecular fluorescence complementation (BiFC) assay of SOD1 aggregation, H46R; type: cell-based; details: 50 µM
T3 construct: expressed in transfected cells; host or cells: human H4 neuroglioma cells (HTB-148, ATCC)
T3 sequence (P00441 whole entry H47R): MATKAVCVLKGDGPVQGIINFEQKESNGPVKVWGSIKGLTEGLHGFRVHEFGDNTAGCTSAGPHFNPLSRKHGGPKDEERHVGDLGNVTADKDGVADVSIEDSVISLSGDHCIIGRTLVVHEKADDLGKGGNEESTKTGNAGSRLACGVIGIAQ
T3 sequence (P00441 2-154 H47R limits assumed): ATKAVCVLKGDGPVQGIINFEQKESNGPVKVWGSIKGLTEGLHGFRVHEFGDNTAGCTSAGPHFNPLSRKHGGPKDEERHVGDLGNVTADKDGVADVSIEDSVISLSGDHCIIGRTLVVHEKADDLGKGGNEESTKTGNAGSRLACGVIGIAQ
Protocol: as §2
Following the drug treatment (24 h) of transfected cells and nuclear staining with DRAQ5 for 5 min the tiled images were generated as described above. […] Fiji software[52] was used to determine minimum and maximum diameter of cells and inclusions within the cells in pixel units. […]

[7] = test system: H4 cells expressing A4V SOD1; assay: ATP bioluminescent (CellTiter-Glo) cell viability assay, H4 cells expressing A4V SOD1; type: cell-based, human; details: for cell survival: 10 and 25 μM, 24 h, individual drugs
Protocol: as §1

[8] = test system: SOD1^G93A transgenic mice; set-up: method as in PMID 32862101; details: cited from earlier work
[9] = test system: H4 cells expressing wild-type SOD1; assay: ATP bioluminescent (CellTiter-Glo) cell viability assay, H4 cells expressing wild-type SOD1; details: wild-type SOD1, dose-response 2.5 to 100 μM, Supplementary Fig. S1
Protocol: as §1, with “To avoid the interference of the antioxidant compounds (ebselen and its analogues) with the luciferase activity in the presence of oxygen, the drugs containing media was replaced with a fresh medium prior to the addition of the reagent.” left out

[10] = female, CD1, mouse, in vivo, iv, 1 mg/kg
[11] = female, CD1, mouse, in vivo, po, 30 mg/kg

Nc1nc2ccc(OC(F)(F)F)cc2s1 [riluzole]
effect on proteostasis [1]: no effect on proteostasis

COc1ccc(Cn2[se]c3ccccc3c2=O)cn1 [MR6-26-2]
poly-ubiquitinated proteins [1]: reduced | cells with more than 5 inclusions per cell (G93A SOD1; G93A SOD1, 50 µM, 24 h): no cells were detected | reduction of aggregates / aggregation propensity (G93A SOD1; G93A, 50 µM): most effective in reducing the aggregates | AUC(0-inf) [2, 10]: 203 ng·h/mL | AUC(0-t) [2, 10]: 197 ng·h/mL | MRT inf [2, 10]: 0.267 h | Vd [2, 10]: 1.37 L/kg | clearance [2, 10]: 85.7 mL/min/kg | AUC(0-inf) [2, 11]: 1790 ng·h/mL | AUC(0-t) [2, 11]: 1730 ng·h/mL | CL [2, 11]: 4.17 mL/min/kg | MRTINF [2, 11]: 29.5 h | bioavailability [2, 11]: 29% | half-life [2, 11]: 1.5 h | half-life ([2]; female, CD1, mouse, plasma, IV dose at 1 mg/kg, mean, read-out: T1/2 (converted)): 0.347 h | half-life ([2]; female, CD1, mouse, plasma, oral dose of 30 mg/kg, mean, read-out: T1/2 (converted)): 1.35 h | clearance ([2]; mouse, in vivo): fast clearance | cells with more than 5 inclusions per cell (D90A SOD1; D90A SOD1, 50 µM, 24 h): no cells were detected | reduction of aggregates / aggregation propensity (D90A SOD1): most effective in reducing the aggregates | p62- and poly-ubiquitin-doubly positive inclusions in motor neurons ([3]; 120-days-old SOD1G93A lumbar spinal cord): substantially reduced | SOD1 oligomers with aberrant disulfide bonds in spinal cords ([3]; SOD1G93A mice, 120 days old, non-reducing SDS-PAGE): sharply decreased | misfolded SOD1 (C4F6 antibody) in lumbar spinal cord ([3]; early symptomatic SOD1G93A mice): reduced the accumulation of misfolded SOD1 | motor neuron degeneration (ChAT-positive motor neurons) ([3]; early symptomatic SOD1G93A mice, Fig. 5J): without affecting the motor neuron degeneration | level of poly-ubiquitinated proteins in spinal cords ([3]; immunoblotting, insoluble fractions, 120 days old): decreased | insoluble SOD1 proteins in spinal cords ([3]; mouse, in vivo): sharply decreased | dosage restoring wild-type level viability, lower than edaravone [4]: 100 -fold | clasping scores ([5]; SOD1G93A mice, Fig. 5C): improvement | survival time ([5]; SOD1G93A mice, chronic oral): did not show a significant extension | slowing of disease onset ([5]; SOD1G93A mice, oral): approximately 15 days | body weights ([5]; Supplementary Fig. S4): unaffected | rotarod performance ([5]; Supplementary Fig. S4): unaffected | disease onset (mean ± SD) [5]: 121.1 ± 7.2 days | cells displaying more than 5 inclusions per cell (A4V SOD1; A4V SOD1, 50 µM, 24 h, 75% in untreated cells): 29% | reduction of aggregates / aggregation propensity (A4V SOD1; A4V, 50 µM): most effective in reducing the aggregates | drug concentration found to reduce the aggregates effectively (A4V SOD1; A4V, doses 25, 50 and 100 µM, Fig. 3A): 50 µM | cell survival [6]: increased the cell survival | concentration up to which high level of cells viability is seen [6]: up to 25 µM | reduction of aggregates / aggregation propensity (H46R SOD1): most effective in reducing the aggregates | cell survival [7]: increased the cell survival | concentration up to which high level of cells viability is seen ([7]; dose-response 2.5 to 100 μM): up to 25 µM | concentration reviving the cells to maximum level ([7]; dose-response 2.5 to 100 μM, Supplementary Fig. S1): 12.5 µM

O=c1c2ccccc2[se]n1-c1ccccc1 [ebselen, 2-phenyl-1,2-benzisoselenazol-3(2H)-one]
reduction of aggregates / aggregation propensity (D90A SOD1): least effective | neuroprotection in SOD1G93A mice by delaying disease onset [8]: partial neuroprotection | cell survival [6]: increased the cell survival | concentration up to which high level of cells viability is seen [6]: up to 25 µM | reduction of aggregates / aggregation propensity (H46R SOD1): least effective | cell survival [7]: increased the cell survival | concentration up to which high level of cells viability is seen ([7]; dose-response 2.5 to 100 μM): up to 25 µM

CC1=NN(c2ccccc2)C(=O)C1 [edaravone]
insoluble SOD1 species ([1]; Fig. 6I): tendency to reduce insoluble SOD1 | poly-ubiquitinated proteins [1]: little effect | insoluble p62 ([1]; Fig. 6K): little effect | cell survival [6]: increased the cell survival | cell survival [7]: increased the cell survival

O=c1c2ccccc2[se]n1Cc1cccnc1 [MR6-8-2]
concentrations giving a sharp fall of viable cells (toxicity) [9]: above 25 µM | reduction of aggregates / aggregation propensity (D90A SOD1): least effective | dosage restoring wild-type level viability, lower than edaravone [4]: 100 -fold | disease onset (mean ± SD) [5]: 115.5 ± 9.2 days | cell survival [6]: increased the cell survival | reduction of aggregates / aggregation propensity (H46R SOD1): least effective | cell survival [7]: increased the cell survival
